# Literature values, collected in patent publication US20030013767A1, “Method of treating weight loss using creatine” (priority 2001, published 2003).
# Key:
# [1] = test system: gyrate atrophy; conditions: gyrate atrophy patients
# [2] = test system: severe deficiency of creatine in brain; conditions: oral, ten to twelve months
# [3] = test system: animal models of neurologic diseases, such as amyotrophic lateral sclerosis
compound,measurement,setting,value
CN(CC(=O)O)C(=N)N [creatine],effect on periocular muscles,[1],slight strengthening of the periocular muscles
same,effect on the atrophy,[1],no effect on the atrophy
same,toxicity,[2]; 4 grams/day (305-370 mg/kg/day) to 8 grams/day (600-740 mg/kg/day),no report of toxicity
same,treatment outcome,[2]; 4 grams/day to 8 grams/day,some success
same,therapeutic outcome,[3],without success
